PMC9501633, “Synthesis, Characterisation and Mechanism of Action of Anticancer 3-Fluoroazetidin-2-ones” (Pharmaceuticals, 2022)

Tests used:
ACHN = assay: NCI 60 cell line screen, Renal; format: cell-based, human; conditions: one dose 10 µM; for inhibition at 10 µM: Homo sapiens
SR = assay: NCI 60 cell line screen, Leukaemia; format: cell-based, human; conditions: one dose 10 µM; for inhibition at 10 µM: Homo sapiens
HOP-92 = assay: NCI 60 cell line screen, NSCLung; format: cell-based, human; conditions: one dose 10 µM; for inhibition at 10 µM: Homo sapiens
NCI/ADR-RES = assay: NCI 60 cell line screen, Ovarian; format: cell-based, human; conditions: one dose 10 µM; for inhibition at 10 µM: Homo sapiens
RXF 393 = assay: NCI 60 cell line screen, Renal; format: cell-based, human; conditions: one dose 10 µM; for inhibition at 10 µM: Homo sapiens
HCT-15 = assay: NCI 60 cell line screen, Colon; format: cell-based, human; conditions: one dose 10 µM; for inhibition at 10 µM: Homo sapiens
786–0 = assay: NCI 60 cell line screen, Renal; format: cell-based, human; conditions: 786-0, one dose 10 µM; for inhibition at 10 µM: Homo sapiens
SF-268 = assay: NCI 60 cell line screen, CNS; format: cell-based, human; conditions: one dose 10 µM; for inhibition at 10 µM: Homo sapiens
HL-60(TB) = assay: NCI 60 cell line screen, Leukaemia; format: cell-based, human; conditions: one dose 10 µM; for inhibition at 10 µM: Homo sapiens
EKVX = assay: NCI 60 cell line screen, NSCLung; format: cell-based, human; conditions: one dose 10 µM; for inhibition at 10 µM: Homo sapiens
OVCAR-5 = assay: NCI 60 cell line screen, Ovarian; format: cell-based, human; conditions: one dose 10 µM; for inhibition at 10 µM: Homo sapiens
DU-145 = assay: NCI 60 cell line screen, Prostate; format: cell-based, human; conditions: one dose 10 µM; for inhibition at 10 µM: Homo sapiens
A498 = assay: NCI 60 cell line screen, Renal; format: cell-based, human; conditions: one dose 10 µM; for inhibition at 10 µM: Homo sapiens
NCI-H522 = assay: NCI 60 cell line screen, NSCLung; format: cell-based, human; conditions: one dose 10 µM; for inhibition at 10 µM: Homo sapiens
SN12C = assay: NCI 60 cell line screen, Renal; format: cell-based, human; conditions: one dose 10 µM; for inhibition at 10 µM: Homo sapiens
MOLT-4 = assay: NCI 60 cell line screen, Leukaemia; format: cell-based, human; conditions: one dose 10 µM; for inhibition at 10 µM: Homo sapiens
NCI 60 cell line panel = assay: NCI 60 cell line screen, whole panel; format: cell-based; conditions: for inhibition at 10 µM: one dose 10 μM, mean over the 60 cell lines, read-out: mean growth inhibition; for mean Growth %: one dose 10 µM, mean over the cell lines
Procedure: The antiproliferative effects of selected compounds 33, 37 and 43 were initially evaluated in the NCI 60 cell line screen at 10 μM concentration (see Supplementary Materials Table S3). […] . […] .
Compound 33 was next selected for evaluation in the NCI 60 cell line five-dose screen. The GI50 (50% growth inhibition), TGI (total growth inhibition) and LC50 (50% lethal concentration) were determined in the NCI panel of 60 cell lines, using the sulphorhodamine B (SRB) protein assay (Table 5). The GI50 value provides the growth inhibition of the selected compound, while the cytotoxic effect is evaluated in the LC50 value. […] . […] . Glioblastoma is an aggressive and fast-growing brain tumour with a median survival time of 9–16 months from diagnosis, and these tumours quickly evolve resistance to temozolomide chemotherapy, which is the only FDA-approved treatment. […] . Further mechanistic and cellular studies were carried out and are described below.
aData obtained from NCI in vitro human tumour cell screen 1 dose assay (10 µM). 33 (NCI

OVCAR-8 = assay: NCI 60 cell line screen, Ovarian; format: cell-based, human; conditions: one dose 10 µM; for inhibition at 10 µM: Homo sapiens
SK-OV-3 = assay: NCI 60 cell line screen, Ovarian; format: cell-based, human; conditions: one dose 10 µM; for inhibition at 10 µM: Homo sapiens
HOP-62 = assay: NCI 60 cell line screen, NSCLung; format: cell-based, human; conditions: one dose 10 µM; for inhibition at 10 µM: Homo sapiens
SF-295 = assay: NCI 60 cell line screen, CNS; format: cell-based, human; conditions: one dose 10 µM; for inhibition at 10 µM: Homo sapiens
MDA-MB-435 = assay: NCI 60 cell line screen, Melanoma; format: cell-based, human; conditions: one dose 10 µM; for inhibition at 10 µM: Homo sapiens
HS 578T = assay: NCI 60 cell line screen, Breast; format: cell-based, human; conditions: one dose 10 µM; for inhibition at 10 µM: Homo sapiens
SNB-19 = assay: NCI 60 cell line screen, CNS; format: cell-based, human; conditions: one dose 10 µM; for inhibition at 10 µM: Homo sapiens
HCC-2998 = assay: NCI 60 cell line screen, Colon; format: cell-based, human; conditions: one dose 10 µM; for inhibition at 10 µM: Homo sapiens
SK-MEL-28 = assay: NCI 60 cell line screen, Melanoma; format: cell-based, human; conditions: one dose 10 µM; for inhibition at 10 µM: Homo sapiens
UO-31 = assay: NCI 60 cell line screen, Renal; format: cell-based, human; conditions: one dose 10 µM; for inhibition at 10 µM: Homo sapiens
IGROV1 = assay: NCI 60 cell line screen, Ovarian; format: cell-based, human; conditions: for inhibition at 10 µM: Homo sapiens, IGROV-1, one dose 10 µM; for Growth %: one dose 10 µM
UACC-62 = assay: NCI 60 cell line screen, Melanoma; format: cell-based, human; conditions: one dose 10 µM; for inhibition at 10 µM: Homo sapiens
HT29 = assay: NCI 60 cell line screen, Colon; format: cell-based, human; conditions: for inhibition at 10 µM: Homo sapiens, HT-29, one dose 10 µM; for Growth %: one dose 10 µM
HCT-116 = assay: NCI 60 cell line screen, Colon; format: cell-based, human; conditions: one dose 10 µM; for inhibition at 10 µM: Homo sapiens
MDA-MB-468 = assay: NCI 60 cell line screen, Breast; format: cell-based, human; conditions: one dose 10 µM; for inhibition at 10 µM: Homo sapiens

SMILES: COc1ccc(C2N(c3cc(OC)c(OC)c(OC)c3)C(=O)C2(F)F)cc1F (stereo not shown) [Compound 43, 3,3-Difluoro-4-(3-fluoro-4-methoxyphenyl)-1-(3,4,5-trimethoxyphenyl)azetidin-2-one]
- inhibition at 10 µM (ACHN): 39.2%
- Growth % (ACHN): 60.82%
- inhibition at 10 µM (SR): 81.3%
- Growth % (SR): 18.7%
- inhibition at 10 µM (HOP-92): 39.2%
- Growth % (HOP-92): 60.84%
- inhibition at 10 µM (NCI/ADR-RES): 67.1%
- Growth % (NCI/ADR-RES): 32.94%
- inhibition at 10 µM (RXF 393): 50.6%
- Growth % (RXF 393): 49.36%
- inhibition at 10 µM (HCT-15): 80.6%
- Growth % (HCT-15): 19.44%
- Growth % (786–0): 75.35%
- inhibition at 10 µM (786–0): 24.6%
- inhibition at 10 µM (SF-268): 47.1%
- Growth % (SF-268): 52.94%
- inhibition at 10 µM (HL-60(TB)): 99.1%
- Growth % (HL-60(TB)): 0.94%
- inhibition at 10 µM (EKVX): 22.3%
- Growth % (EKVX): 77.7%
- inhibition at 10 µM (OVCAR-5): 21.3%
- Growth % (OVCAR-5): 78.72%
- inhibition at 10 µM (DU-145): 74.8%
- Growth % (DU-145): 25.22%
- inhibition at 10 µM (A498): 2.19%
- Growth % (A498): 97.81%
- inhibition at 10 µM (NCI-H522): 82.5%
- Growth % (NCI-H522): 17.54%
- inhibition at 10 µM (SN12C): 45.1%
- Growth % (SN12C): 54.92%
- inhibition at 10 µM (MOLT-4): 81.3%
- Growth % (MOLT-4): 18.67%
- inhibition at 10 µM (NCI 60 cell line panel; Homo sapiens, 60 cell): 56.4%
- mean Growth % (NCI 60 cell line panel): 43.57%
- inhibition at 10 µM (OVCAR-8): 55.9%
- Growth % (OVCAR-8): 44.07%
- inhibition at 10 µM (SK-OV-3): 24.5%
- Growth % (SK-OV-3): 75.49%
- inhibition at 10 µM (HOP-62): 61.6%
- Growth % (HOP-62): 38.43%
- inhibition at 10 µM (SF-295): 51.7%
- Growth % (SF-295): 48.29%
- inhibition at 10 µM (MDA-MB-435): 87.1%
- Growth % (MDA-MB-435): 12.92%
- inhibition at 10 µM (HS 578T): 78.1%
- Growth % (HS 578T): 21.93%
- inhibition at 10 µM (SNB-19): 47.1%
- Growth % (SNB-19): 52.93%
- inhibition at 10 µM (HCC-2998): 15.8%
- Growth % (HCC-2998): 84.2%
- inhibition at 10 µM (SK-MEL-28): 22.8%
- Growth % (SK-MEL-28): 77.22%
- inhibition at 10 µM (UO-31): 46.5%
- Growth % (UO-31): 53.48%
- inhibition at 10 µM (IGROV1): 55.8%
- Growth % (IGROV1): 44.2%
- inhibition at 10 µM (UACC-62): 44.5%
- Growth % (UACC-62): 55.46%
- inhibition at 10 µM (HT29): 88.8%
- Growth % (HT29): 11.16%
- inhibition at 10 µM (HCT-116): 94.2%
- Growth % (HCT-116): 5.76%
- inhibition at 10 µM (MDA-MB-468): 55.5%
- Growth % (MDA-MB-468): 44.48%

SMILES: CCOc1ccc(C2N(c3cc(OC)c(OC)c(OC)c3)C(=O)C2(F)F)cc1 (stereo not shown) [Compound 37, 4-(4-Ethoxyphenyl)-3,3-difluoro-1-(3,4,5-trimethoxyphenyl)azetidin-2-one]
- inhibition at 10 µM (ACHN): 44.8%
- Growth % (ACHN): 55.25%
- inhibition at 10 µM (SR): 83.8%
- Growth % (SR): 16.25%
- inhibition at 10 µM (HOP-92): 44.4%
- Growth % (HOP-92): 55.62%
- inhibition at 10 µM (NCI/ADR-RES): 71.1%
- Growth % (NCI/ADR-RES): 28.94%
- inhibition at 10 µM (RXF 393): 45.8%
- Growth % (RXF 393): 54.19%
- inhibition at 10 µM (HCT-15): 77.5%
- Growth % (HCT-15): 22.55%
- Growth % (786–0): 64.68%
- inhibition at 10 µM (786–0): 35.3%
- inhibition at 10 µM (SF-268): 47.6%
- Growth % (SF-268): 52.38%
- inhibition at 10 µM (HL-60(TB)): 116%
- Growth % (HL-60(TB)): -15.97%
- inhibition at 10 µM (EKVX): 24.7%
- Growth % (EKVX): 75.34%
- inhibition at 10 µM (OVCAR-5): 33.5%
- Growth % (OVCAR-5): 66.47%
- inhibition at 10 µM (DU-145): 70%
- Growth % (DU-145): 30.05%
- inhibition at 10 µM (A498): 7.7%
- Growth % (A498): 92.3%
- inhibition at 10 µM (NCI-H522): 80.7%
- Growth % (NCI-H522): 19.28%
- inhibition at 10 µM (SN12C): 49%
- Growth % (SN12C): 50.97%
- inhibition at 10 µM (MOLT-4): 81.9%
- Growth % (MOLT-4): 18.14%
- inhibition at 10 µM (NCI 60 cell line panel; Homo sapiens, 60 cell): 59%
- mean Growth % (NCI 60 cell line panel): 41.05%
- inhibition at 10 µM (OVCAR-8): 56.8%
- Growth % (OVCAR-8): 43.23%
- inhibition at 10 µM (SK-OV-3): 28.1%
- Growth % (SK-OV-3): 71.89%
- inhibition at 10 µM (HOP-62): 59.2%
- Growth % (HOP-62): 40.81%
- inhibition at 10 µM (SF-295): 43.7%
- Growth % (SF-295): 56.32%
- inhibition at 10 µM (MDA-MB-435): 83.2%
- Growth % (MDA-MB-435): 16.83%
- inhibition at 10 µM (HS 578T): 62.6%
- Growth % (HS 578T): 37.42%
- inhibition at 10 µM (SNB-19): 45.9%
- Growth % (SNB-19): 54.14%
- inhibition at 10 µM (HCC-2998): 18.3%
- Growth % (HCC-2998): 81.66%
- inhibition at 10 µM (SK-MEL-28): 33.2%
- Growth % (SK-MEL-28): 66.8%
- inhibition at 10 µM (UO-31): 48.1%
- Growth % (UO-31): 51.9%
- inhibition at 10 µM (IGROV1): 62.2%
- Growth % (IGROV1): 37.8%
- inhibition at 10 µM (UACC-62): 48.4%
- Growth % (UACC-62): 51.61%
- inhibition at 10 µM (HT29): 87.7%
- Growth % (HT29): 12.27%
- inhibition at 10 µM (HCT-116): 91.1%
- Growth % (HCT-116): 8.92%
- inhibition at 10 µM (MDA-MB-468): 65.1%
- Growth % (MDA-MB-468): 34.89%

SMILES: COc1ccc(/C=C\c2cc(OC)c(OC)c(OC)c2)cc1O [CA-4, combretastatin A-4, reference compound]
- MG-MID TGI (NCI 60 cell line panel; 5-dose assay, 48 h, mean-graph midpoint): 10300 nM
- GI50 (NCI 60 cell line panel; Homo sapiens, 60 cell, 48 h, 5-dose assay, 48 h, mean-graph midpoint, read-out: MG-MID GI50): 99 nM
